Experimental data published in patent publication US20260242352A1, “INHIBITION OF SHIP1 AS A THERAPEUTIC STRATEGY FOR THE TREATMENT OF ALZHEIMER'S DISEASE” (The Trustees of Indiana University, priority 2022, published 2026).

The compounds below were run against T1, SHIP1 (Homo sapiens, UniProt Q92835) (assay: Malachite green enzyme assay). Details: Table 1; PI(3,4,5)P3-diC8 52 μM, enzyme 10 nM, SHIP1 Ptase-C2, 25° C., pH7.4; geometric mean; read-out: SHIP1 IC50 μM (n).
T1 sequence (Q92835 396-858): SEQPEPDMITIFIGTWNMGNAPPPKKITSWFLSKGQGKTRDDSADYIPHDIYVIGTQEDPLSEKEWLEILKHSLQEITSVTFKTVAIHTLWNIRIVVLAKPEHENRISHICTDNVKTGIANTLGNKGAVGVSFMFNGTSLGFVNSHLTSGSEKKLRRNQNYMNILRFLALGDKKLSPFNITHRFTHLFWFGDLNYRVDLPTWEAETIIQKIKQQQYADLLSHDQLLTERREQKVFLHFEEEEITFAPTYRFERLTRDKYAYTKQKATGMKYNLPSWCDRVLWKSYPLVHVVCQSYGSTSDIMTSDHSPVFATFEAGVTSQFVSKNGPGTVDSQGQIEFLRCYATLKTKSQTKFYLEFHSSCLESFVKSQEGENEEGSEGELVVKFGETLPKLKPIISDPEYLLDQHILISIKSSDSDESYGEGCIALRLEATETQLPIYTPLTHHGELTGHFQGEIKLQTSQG
Assay type: biochemical
Description: The inventors have performed a screen of 50K compounds at the SHIP1 phosphatase, analyzed a publicly available fragment-based screen, and evaluated inhibitors reported in the literature. They utilized the malachite green assay with PtdIns(3,4,5)P3-diC8 and SHIP1 Ptase-C2 to measure inhibitory potency. A Cellular Thermal Shift Assay was used to confirm target engagement in cells. A phosphoAKT assay was used to provide additional evidence of on-target activity. A high-content imaging assay measuring phagocytosis, cell number, and nuclear intensity was implemented using the BV2 and HMC3 cell lines to characterize cellular pharmacology and cytotoxicity. […] Inhibitors predicted to have drug-like properties were subjected to assays measuring solubility, cellular permeability, and mouse microsomal stability. A physiological based pharmacokinetic model was compared to measured exposure in vivo for select compounds upon oral administration in mice.
Malachite Green Enzyme Assay. […] Compounds diluted in DMSO were added to 384-well plates. Enzyme solution was added. After a 20 min incubation period, the reaction was initiated by addition of PI(3,4,5)P3-diC8. Final compound concentrations ranged from 50 nM to 950 μM. Final reaction concentrations for the PI(3,4,5)P3-diC8 substrate and the enzyme were 52 μM and 10 nM respectively. The reaction was quenched after 10 min by adding Malachite BioMol Green (Enzo Lifesciences, PA, USA). Plates were then incubated for 30 min at room temperature. Absorbance (620 nm) was measured using a SpectraMax Me5 Microplate Reader (Molecular Devices, LLC, USA). IC50 values were calculated by fitting absorbance versus inhibitor concentration.
Compounds diluted in DMSO were added to 384-well plates. Enzyme solution was added. After a 20 min incubation period, the reaction was initiated by addition of PI(3,4,5)P3-diC8. Final compound concentrations ranged from 50 nM to 950 μM. Final reaction concentrations for the PI(3,4,5)P3-diC8 substrate and the enzyme were 52 μM and 10 nM respectively. The reaction was quenched after 10 min by adding Malachite BioMol Green (Enzo Lifesciences, PA, USA). Plates were then incubated for 30 min at room temperature. Absorbance (620 nm) was measured using a SpectraMax Me5 Microplate Reader (Molecular Devices, LLC, USA). IC50 values were calculated by fitting absorbance versus inhibitor concentration and are reported as the geometric mean and standard error of mean with the number of repeats (n) indicated. Compounds and activities are as depicted in tables 1 and 2 above.

Q: How did the IC50 turn out when CC(C)(C)OC(=O)N1CCC(n2cc(-c3cncc(OCc4ccccc4F)c3)cn2)CC1 [Compound 2, tert-butyl 4-(4-(5-((2-fluorobenzyl)oxy)pyridin-3-yl)-1H-pyrazol-1-yl)piperidine-1-carboxylate] was run?
A: The IC50 was 81.9 µM.

Q: With Cc1ccccc1COc1cncc(-c2cnn(C3CCN(C(=O)OC(C)(C)C)CC3)c2)c1 [Compound 3, tert-butyl 4-(4-(5-((2-methylbenzyl)oxy)pyridin-3-yl)-1H-pyrazol-1-yl)piperidine-1-carboxylate] as the compound, how does the IC50 read?
A: Its IC50 is 116 µM.

Q: How did the IC50 turn out when CC(C)(C)OC(=O)N1CCC(n2cc(-c3cncc(OCc4ccccc4)c3)cn2)CC1 [Compound 4, tert-butyl 4-(4-(5-(benzyloxy)pyridin-3-yl)-1H-pyrazol-1-yl)piperidine-1-carboxylate] was run?
A: The IC50 was 90.3 µM.

Q: With CC(C)(C)OC(=O)N1CCC(n2cc(-c3cncc(OCc4c(Cl)cccc4Cl)c3)cn2)CC1 [Compound 5, tert-butyl 4-(4-(5-((2,6-dichlorobenzyl)oxy)pyridin-3-yl)-1H-pyrazol-1-yl)piperidine-1-carboxylate] as the compound, how does the IC50 read?
A: The IC50 was 35.7 µM.

Q: CC(C)(C)OC(=O)N1CCC(n2cc(-c3cncc(OCc4ccc(Br)cc4)c3)cn2)CC1 [Compound 7, tert-butyl 4-(4-(5-((4-bromobenzyl)oxy)pyridin-3-yl)-1H-pyrazol-1-yl)piperidine-1-carboxylate] was tested. Which IC50 did it give?
A: Its IC50 is 57 µM.

Q: For Cl.Clc1ccccc1COc1cncc(-c2cnn(C3CCNCC3)c2)c1 [Compound 9, 3-((2-chlorobenzyl)oxy)-5-(1-(piperidin-4-yl)-1H-pyrazol-4-yl)pyridine hydrochloride], which IC50 is on record?
A: Its IC50 is 302 µM.

Q: For Cl.Clc1ccc(COc2cncc(-c3cnn(C4CCNCC4)c3)c2)c(Cl)c1 [Compound 10, 3-((2,4-dichlorobenzyl)oxy)-5-(1-(piperidin-4-yl)-1H-pyrazol-4-yl)pyridine hydrochloride], which IC50 is on record?
A: The IC50 was 286 µM.

Q: How did the IC50 turn out when CC(C)(C)CC(=O)N1CCC(n2cc(-c3cncc(OCc4ccccc4Cl)c3)cn2)CC1 [Compound 16, 1-(4-(4-(5-((2-chlorobenzyl)oxy)pyridin-3-yl)-1H-pyrazol-1-yl)piperidin-1-yl)-3,3-dimethylbutan-1-one] was run?
A: Its IC50 is 102 µM.

Q: For C[C@@H](Oc1cncc(-c2cnn(C3CCNCC3)c2)c1)c1ccccc1Cl [Compound 22, (R)-3-(1-(2-chlorophenyl)ethoxy)-5-(1-(piperidin-4-yl)-1H-pyrazol-4-yl)pyridine], which IC50 is on record?
A: The IC50 was 152 µM.

Q: With Cc1ccccc1COc1cncc(-c2cnn(C3CCNCC3)c2)c1 [Compound 25, 3-[(2-Methylphenyl)methoxy]-5-[1-(piperidin-4-yl)-1H-pyrazol-4-yl]pyridine] as the compound, how does the IC50 read?
A: Its IC50 is 851 µM.

Q: For Clc1ccccc1COc1cncc(-c2ccn(C3CCNCC3)n2)c1 [Compound 26, 3-((2-chlorobenzyl)oxy)-5-(1-(piperidin-4-yl)-1H-pyrazol-3-yl)pyridine], which IC50 is on record?
A: Its IC50 is 690 µM.

Q: With Clc1ccccc1COc1cncc(-n2ccc(C3CCNCC3)n2)c1 [Compound 27, 3-((2-chlorobenzyl)oxy)-5-(3-(piperidin-4-yl)-1H-pyrazol-1-yl)pyridine] as the compound, how does the IC50 read?
A: The IC50 was 332 µM.

Q: Which IC50 does the source give for Clc1ccccc1COc1cncc(-n2cc(C3CCNCC3)cn2)c1 [Compound 28, 3-((2-chlorobenzyl)oxy)-5-(4-(piperidin-4-yl)-1H-pyrazol-1-yl)pyridine] here?
A: The IC50 was 601 µM.

Q: How did the IC50 turn out when Clc1ccccc1COc1cccc(-c2cnn(C3CCNCC3)c2)c1 [Compound 29, 4-(4-(3-((2-chlorobenzyl)oxy)phenyl)-1H-pyrazol-1-yl)piperidine] was run?
A: The IC50 was 186 µM.
